Here are results for 3 compounds from patent US5998423A, “Methods for modulating melanin production” (Therasys, Inc., priority 1997, dated 1999).

In test [1] the test system is Mouse, Cloudman S91 Melanoma Cell line. Description: Stimulation of melanin synthesis in cell culture (melanin content, OD 475 nm). Format: cell-based. As to conditions: result in words; incubation 5-7 days at 37° C.; values only in FIG. 6. An excerpt:
A Mouse, Cloudman S91 Melanoma Cell line (Clone M-3, ATCC CCL-53.1) was used. The cells were flown as monolayers. These cells multiply 7-8 fold in 7 days and are know to produce melanin in over 50% of the cells up to at least 33 passages. Horse serum, fetal Bovine serum, Penicillin-streptomycin and F-10 nutrient mixture were all obtained from Life Technologies (GIBCO, Grand Island, N.Y.). N^6 -Cyclopentyl-9-methyladenine (N-154) and C-102 (CPT) were obtained from RBI (Natick, Mass.). 1-Oleoyl-2-acetyl-rac-glycerol, activated charcoal, Triton X-100, phenyl methyl sulfonyl fluoride, theophylline, synthetic melanin and L-tyrosine-[Ring-3,5] were all obtained from Sigma Chemical Co. (St. Louis, Mo.). The culture medium used was Ham's F-10. The composition of the medium was as follows: Ham's F-10 Nutrient Mixture (82.5%), horse serum (15.0%), fetal bovine serum (2.5%), penecillin-streptomycin mixture (1.0%).
Cells were incubated with the indicated reagents (see FIG. 6) at 37° C. under 5% CO2 atmosphere for 5-7 days. At the time of harvest, exhausted medium was removed from flasks/wells and cells were treated with 1-5 mL of 0.25% trypsin for 2-3 minutes. […]
The pellet (from above extraction) was dissolved in 0.25 mL of 0.5 N NaOH and the optical density was measured at 475 nm. The melanin content was determined from a standard curve obtained by using a synthetic melanin.

The test system of another test is melanoma cell lines. As to conditions: cited from earlier work.
For a further test, the system named is adenylate cyclase. Particulars: through activation of adenylate cyclase, thereby increasing cAMP levels; cited from earlier work. In general terms: cAMP levels reflect the balance of adenylyl cyclase and phosphodiesterase activity.

As to `Cn1cnc2c(NC3CCCC3)ncnc21` [N^6 -Cyclopentyl-9-methyladenine], the “stimulation of melanin synthesis” value in test [1] is listed as “stimulation of melanin synthesis”.

For `Cn1c(=O)c2[nH]cnc2n(C)c1=O` [Theophylline, theophylline], in the test with melanoma cell lines, the stimulation of melanogenesis entry is reported as “potent stimulator of melanogenesis”. Take α-MSH: in the test with adenylate cyclase, the melanin production entry was “increase melanin production”.
